# Assay results taken from US8710246B2, “Substituted thiophene pentamers” (Biochromix Newco AB, priority 2008, dated 2014).
# “Also recorded” adds a separate entry of the source.
# What was measured:
# [1] = 14 days treatment, biodistribution by HPLC-MS/MS; format: in vivo, mice
# Method: Starting at 4 months of age, female hAPPSL mice were treated with vehicle only or p-FTAA in 3 dosages for 14 days. 40 hAPP Tg mice plus 4 reserves allocated to 4 different treatment groups were treated with either vehicle only (control) or with p-FTAA in dosages of 0.1 mg/kg/day, 1 mg/kg/day, or 10 mg/kg/day. Vehicle and T.I.s were administered twice daily intra peritoneal (ip) for 14 days.
# The biodistribution of p-FTAA in the mice was assessed by determining the parent compound in the right brain hemisphere (without cerebellum), liver, kidney, and plasma of the treated animals. p-FTAA was determined in all the matrices by different bioanalytical methods involving HPLC-MS/MS. Each method was characterized in terms of specificity, linearity, accuracy and precision in order to give reliable results.
# Tissue Sampling: After the last treatment, animals were sacrificed. Each treatment group was divided in 3 sampling points resulting in 3-4 animals per sampling point per group (time points below refer to the time point of CSF sampling):
# 1) Immediately before last dosing on day 14 (predose)
# 2) 0.5 hours after last dosing on day 14
# 3) 3 hours after last dosing on day 14
# From each animal, CSF, blood, brains, liver, and kidney were collected. Therefore, mice were sedated by standard inhalation anesthesia (Isofluran, Baxter)
# [2] = test system: Human Aβ38, Aβ40 and Aβ42; assay: 30 days treatment, human Aβ determinations in CSF and brain homogenate SDS fraction (Mesoscale immunosorbent assay); format: in vivo, mice
# Method: Starting at 8 months of age, female hAPPSL mice were treated with vehicle only or p-FTAA in 3 dosages for 30 days. The Test Item (T.I.) p-FTAA was administered in 3 dosages in Vehicle. 48 hAPP Tg mice plus 4 reserves allocated to 4 different treatment groups were treated with either vehicle only (control) or with p-FTAA in dosages of 0.1 mg/kg/day, 1 mg/kg/day, or 10 mg/kg/day. As an additional control, 12 nTg littermates of the hAPPSL mice (plus 1 reserve) were treated with vehicle only. Vehicle and T.I.s were administered twice daily intra peritoneal (i.p.) for 30 days.
# Human Aβ38, Aβ40 and Aβ42 were determined in homogenates of the left brain hemispheres and in CSF samples of all Tg animals by an immunosorbent assay from Mesoscale Discovery
# 48 hAPP Tg mice plus 4 reserves allocated to 4 different treatment groups were treated with either vehicle only (control) or p-FTAA. As an additional control, 12 nTg littermates of the hAPPSL mice (plus 1 reserve) were treated with vehicle only. Tg hAPPSL mice with a C57BL/6xDBA background and corresponding nTg littermates at an age of 8 months (±2 weeks) were randomly assigned to the treatment groups.
# Left hemi-brain samples (without cerebellum) of Tg animals were homogenized and separated. SDS fraction was prepared, after thawing, hemispheres were homogenized with the Homogenizer “Ultra Turrax T8” at highest speed in TBS (20 mM Tris, 137 mM NaCl, pH=7.6; containing protease inhibitor cocktail; 100 mg brain wet weight per ml TBS). One aliquot (1 ml) was centrifuged (74,200×g for 1 h at 4° C.). The pellets were suspended in 1 ml SDS (2% SDS in Aqua bidest), centrifuged as above and the supernatants were kept at −20° C. (SDS fraction).
# In the brain homogenate SDS fraction and in CSF of each Tg mouse, human Aβ38, Aβ40 and Aβ42 levels were measured with a Aβ-kit from Mesoscale Discovery. Aβ levels were evaluated in comparison to a peptide standard as pg/mg brain (wet weight) or pg/ml CSF.
# Descriptive statistical analysis was performed on all evaluated parameters. Data were represented as mean±standard deviation (SD). Grubb's test was used to detect outliers. Normality distribution of the values was tested with Kolmogorov Smirnov normality distribution test. Group differences between all Tg groups were calculated by a parametric ANOVA followed by a Bonferroni post test.
# Aβ peptide 1-42 = target: T1, Aβ peptide 1-42 (Homo sapiens, UniProt P05067); assay: In vitro fibrillation of Aβ peptide 1-42 followed by TEM; format: biochemical; details: for fibrillation morphology by TEM: 100 μM compound, 20 μM Aβ 1-42, 37° C.
# T1 construct: Aβ peptide 1-42 was dissolved in hexafluoroisopropanol
# Method: Aβ peptide 1-42 was dissolved in hexafluoroisopropanol to a concentration of 1 mg/mL and further diluted to 20 μM in Tris-HCl 5 mM, 75 mM NaCl. The inventive compounds F and G were added in concentrations from 10 to 100 μM and the samples, including references without the inventive compounds, were incubated at 37° C. to initiate fibrillation. After Oh, 20 h and 66 h aliquots were withdrawn, deposited on formvar-carbon coated TEM grids and negatively stained using uranylacetate. A Phillips CM200 run at 200 kV was used to study the progress of fibrillation in the different samples. […] (at Oh). […] These aggregates were covering most of the TEM grid and no smaller fibril or oligomer like structures could be seen. After 66 h of incubation no major change in morphology compared to the 20 h samples could be seen, sheets with separate visible fibrils were found at high density on the grid, of a typical morphology illustrated in FIG. 3.
# T1 sequence (P05067 672-713 limits assumed): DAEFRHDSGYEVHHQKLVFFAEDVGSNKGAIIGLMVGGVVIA
compound,measurement,setting,value
O=C(O)Cc1cc(-c2ccc(C(=O)O)s2)sc1-c1ccc(-c2sc(-c3ccc(C(=O)O)s3)cc2CC(=O)O)s1 [Compound F],systemic exposure,"[1]; 0.1, 1, 10 mg/kg/day ip for 14 days, plasma",exposed systemically to p-FTAA at all dose levels
same,crossing of the blood-brain barrier (brain levels),"[1]; after ip administration, 14 days",crossed the blood-brain barrier
same,elimination route suggested by tissue levels,"[1]; ip, 14 days",urinary excretion is the main elimination route
same,exposure in the liver and in the kidney,"[1]; ip, 14 days",Significant exposure
same,levels in kidney compared to liver,"[1]; ip, 14 days",higher in the kidney compared to the liver
same,"Aβ38, Aβ40 and Aβ42 levels in CSF compared to vehicle",[2]; 0.1 mg/kg/day ip for 30 days,lower mean Aβ levels but statistical significance was observed for Aβ38 only
same,"Aβ38, Aβ40 and Aβ42 levels in CSF compared to vehicle",[2]; 1 mg/kg/day ip for 30 days,did not differ significantly from the vehicle control
same,"Aβ38, Aβ40 and Aβ42 levels in CSF compared to vehicle","[2]; 10 mg/kg/day ip for 30 days, 8 months old female hAPPSL mice, listed as p-FTAA",significantly decreased; also recorded: highly significant
same,"Aβ38, Aβ40 and Aβ42 levels in SDS brain homogenate fraction compared to vehicle","[2]; 10 mg/kg/day ip for 30 days, listed as p-FTAA",significantly decreased
same,fibrillation morphology by TEM,Aβ peptide 1-42; 20 h,no dense aggregates resembling those in the reference sample
same,fibrillation morphology by TEM,Aβ peptide 1-42; 66 h,no separate fibrils could be found; also recorded: dense aggregates where no fibrils can be seen
same,effect on the fibrillation of Aβ peptide 1-42,"Aβ peptide 1-42; overall conclusion, 20 h and 66 h",major effect
